ChEMBL document CHEMBL1125669, “Synthesis of potential dual-acting radiation sensitizer antineoplastic agents: 2,2-dimethylphosphoraziridines containing 2-nitroimidazoles or other electron-affinic moieties” (1991)

How the values were obtained:
Format in all cases: functional
[1] = test system: Mus musculus; assay: In vivo antitumor activity against P-388 leukemia in CDF1 mice at 128 mg or 335 umol by ip administration expressed as average wt. change determined between day 0 and day 6 of experiment
[2] = test system: Mus musculus; assay: In vivo antitumor activity against P-388 leukemia in CDF1 mice at 32 mg or 84 umol by ip administration expressed as average wt. change determined between day 0 and day 6 of experiment
[3] = test system: Mus musculus; assay: In vivo antitumor activity against P-388 leukemia in CDF1 mice at 8 mg or 21 umol by ip administration expressed as average wt. change determined between day 0 and day 6 of experiment
[4] = test system: Mus musculus; assay: In vivo antitumor activity against P-388 leukemia in CDF1 mice at 256 mg or 670 umol by ip administration expressed as average wt. change determined between day 0 and day 6 of experiment
[5] = test system: Mus musculus; assay: In vivo antitumor activity against P-388 leukemia in CDF1 mice at 64 mg or 167 umol by ip administration expressed as average wt. change determined between day 0 and day 6 of experiment
[6] = test system: Mus musculus; assay: In vivo antitumor activity against P-388 leukemia in CDF1 mice at 16 mg or 42 umol by ip administration expressed as average wt. change determined between day 0 and day 6 of experiment
[7] = test system: Mus musculus; assay: In vivo antitumor activity against P-388 leukemia in CDF1 mice at 128 mg or 335 umol by ip administration expressed as median survival time of drug treated mice/median survival time of control mice x100
[8] = test system: Mus musculus; assay: In vivo antitumor activity against P-388 leukemia in CDF1 mice at 16 mg or 42 umol by ip administration expressed as median survival time of drug treated mice/median survival time of control mice x100
[9] = test system: Mus musculus; assay: In vivo antitumor activity against P-388 leukemia in CDF1 mice at 64 mg or 167 umol by ip administration expressed as median survival time of drug treated mice/median survival time of control mice x100
[10] = test system: Mus musculus; assay: In vivo antitumor activity against P-388 leukemia in CDF1 mice at 8 mg or 21 umol by ip administration expressed as median survival time of drug treated mice/median survival time of control mice x100
[11] = test system: Mus musculus; assay: In vivo antitumor activity against P-388 leukemia in CDF1 mice at 256 mg or 670 umol by ip administration expressed as median survival time of drug treated mice/median survival time of control mice x100
[12] = test system: Mus musculus; assay: In vivo antitumor activity against P-388 leukemia in CDF1 mice at 32 mg or 84 umol by ip administration expressed as median survival time of drug treated mice/median survival time of control mice x100
[13] = test system: Mus musculus; assay: effect of drug treatment in combination with gamma radiation on P-388 leukemia in mice at 120 mg/kg and 0R expressed as average weight change
[14] = test system: Mus musculus; assay: effect of drug treatment in combination with gamma radiation on P-388 leukemia in mice at 120 mg/kg and 200R expressed as average weight change
[15] = test system: Mus musculus; assay: effect of drug treatment in combination with gamma radiation on P-388 leukemia in mice at 120 mg/kg and 400R expressed as average weight change
[16] = test system: Mus musculus; assay: In vivo antitumor activity against P-388 leukemia in CDF1 mice at 100 mg or 430 umol by ip administration expressed as average wt. change determined between day 0 and day 6 of experiment
[17] = test system: Mus musculus; assay: effect of drug treatment in combination with gamma radiation on P-388 leukemia in mice at 120 mg/kg and 600R expressed as average weight change
[18] = test system: Mus musculus; assay: In vivo antitumor activity against P-388 leukemia in CDF1 mice at 200 mg or 861 umol by ip administration expressed as average wt. change determined between day 0 and day 6 of experiment
[19] = test system: Mus musculus; assay: In vivo antitumor activity against P-388 leukemia in CDF1 mice at 100 mg or 430 umol by ip administration expressed as median survival time of drug treated mice/median survival time of control mice x100
[20] = test system: Mus musculus; assay: effect of drug treatment in combination with gamma radiation on P-388 leukemia in mice at 120 mg/kg and 0R expressed as median survival time of drug treated mice/median survival time of control mice x100
[21] = test system: Mus musculus; assay: effect of drug treatment in combination with gamma radiation on P-388 leukemia in mice at 120 mg/kg and 200R expressed as median survival time of drug treated mice/median survival time of control mice x100
[22] = test system: Mus musculus; assay: effect of drug treatment in combination with gamma radiation on P-388 leukemia in mice at 120 mg/kg and 400R expressed as median survival time of drug treated mice/median survival time of control mice x100
[23] = test system: Mus musculus; assay: effect of drug treatment in combination with gamma radiation on P-388 leukemia in mice at 120 mg/kg and 600R expressed as median survival time of drug treated mice/median survival time of control mice x100
[24] = test system: Mus musculus; assay: In vivo antitumor activity against P-388 leukemia in CDF1 mice at 200 mg or 861 umol by ip administration expressed as median survival time of drug treated mice/median survival time of control mice x100
[25] = test system: Mus musculus; assay: In vivo antitumor activity against P-388 leukemia in CDF1 mice at 128 mg or 331 umol by ip administration expressed as average wt. change determined between day 0 and day 6 of experiment
[26] = test system: Mus musculus; assay: In vivo antitumor activity against P-388 leukemia in CDF1 mice at 16 mg or 41 umol by ip administration expressed as average wt. change determined between day 0 and day 6 of experiment
[27] = test system: Mus musculus; assay: In vivo antitumor activity against P-388 leukemia in CDF1 mice at 32 mg or 83 umol by ip administration expressed as average wt. change determined between day 0 and day 6 of experiment
[28] = test system: Mus musculus; assay: In vivo antitumor activity against P-388 leukemia in CDF1 mice at 64 mg or 166 umol by ip administration expressed as average wt. change determined between day 0 and day 6 of experiment
[29] = test system: Mus musculus; assay: In vivo antitumor activity against P-388 leukemia in CDF1 mice at 256 mg or 663 umol by ip administration expressed as average wt. change determined between day 0 and day 6 of experiment
[30] = test system: Mus musculus; assay: effect of drug treatment in combination with gamma radiation on P-388 leukemia in mice at 250 mg/kg and 200R expressed as average weight change
[31] = test system: Mus musculus; assay: effect of drug treatment in combination with gamma radiation on P-388 leukemia in mice at 250 mg/kg and 400R expressed as average weight change
[32] = test system: Mus musculus; assay: effect of drug treatment in combination with gamma radiation on P-388 leukemia in mice at 250 mg/kg and 600R expressed as average weight change
[33] = test system: Mus musculus; assay: In vivo antitumor activity against P-388 leukemia in CDF1 mice at 128 mg or 331 umol by ip administration expressed as median survival time of drug treated mice/median survival time of control mice x100
[34] = test system: Mus musculus; assay: In vivo antitumor activity against P-388 leukemia in CDF1 mice at 16 mg or 41 umol by ip administration expressed as median survival time of drug treated mice/median survival time of control mice x100
[35] = test system: Mus musculus; assay: effect of drug treatment in combination with gamma radiation on P-388 leukemia in mice at 250 mg/kg and 200R expressed as median survival time of drug treated mice/median survival time of control mice x100
[36] = test system: Mus musculus; assay: effect of drug treatment in combination with gamma radiation on P-388 leukemia in mice at 250 mg/kg and 400R expressed as median survival time of drug treated mice/median survival time of control mice x100
[37] = test system: Mus musculus; assay: effect of drug treatment in combination with gamma radiation on P-388 leukemia in mice at 250 mg/kg and 600R expressed as median survival time of drug treated mice/median survival time of control mice x100
[38] = test system: Mus musculus; assay: In vivo antitumor activity against P-388 leukemia in CDF1 mice at 256 mg or 663 umol by ip administration expressed as median survival time of drug treated mice/median survival time of control mice x100
[39] = test system: Mus musculus; assay: In vivo antitumor activity against P-388 leukemia in CDF1 mice at 32 mg or 83 umol by ip administration expressed as median survival time of drug treated mice/median survival time of control mice x100
[40] = test system: Mus musculus; assay: In vivo antitumor activity against P-388 leukemia in CDF1 mice at 64 mg or 166 umol by ip administration expressed as median survival time of drug treated mice/median survival time of control mice x100

CC1(C)CN1P(=O)(NC(=O)OCc1ccccc1[N+](=O)[O-])N1CC1(C)C (configuration not stated)
Average weight change [1]: -1.1 g
Average weight change [2]: -0.4 g
Average weight change [3]: 0.6 g
Average weight change [4]: -1.5 g
Average weight change [5]: -1.1 g
Average weight change [6]: 0 g
T/C [7]: 141%
T/C [8]: 106%
T/C [9]: 129%
T/C [10]: 106%
T/C [11]: 153%
T/C [12]: 118%

CCOP(=O)(N1CC1(C)C)N1CC1(C)C (configuration not stated)
Average weight change [13]: 0.83 g
Average weight change [14]: 0.33 g
Average weight change [15]: -0.93 g
Average weight change [16]: -2.6 g
Average weight change [17]: -3.58 g
Average weight change [18]: -5.2 g
T/C [19]: 289%
T/C [20]: 400%
T/C [21]: 250%
T/C [22]: 160%
T/C [23]: 80%
T/C [24]: 433%

CC1(C)CN1P(=O)(NC(=O)OCCn1ccnc1[N+](=O)[O-])N1CC1(C)C (configuration not stated)
Average weight change [25]: -1.1 g
Average weight change [26]: 0.6 g
Average weight change [27]: 0.8 g
Average weight change [28]: -0.5 g
Average weight change [3]: 1.6 g
Average weight change [29]: -1 g
Average weight change [30]: 1.92 g
Average weight change [31]: 1.17 g
Average weight change [32]: 0.67 g
T/C [33]: 156%
T/C [34]: 125%
T/C [35]: 190%
T/C [36]: 200%
T/C [37]: 230%
T/C [10]: 113%
T/C [38]: 169%
T/C [39]: 125%
T/C [40]: 144%
